According to patent US20240133870A1, “COMBINED TREATMENT FOR CANCER” (Yeda Research and Development Co. Ltd., priority 2021, published 2024):

System: HT-29 orthotopic xenograft colorectal tumors
Test: EVOC of orthotopic colon tumors, pERK and H&E/BrDu
Assay type: cell-based, human
Details: AZD4547 0.5 μM, 96 hours of incubation
Excerpt: 500-700 μmm^3 tumors were resected, sliced, and cultured ex-vivo. Following 4 days of drug treatment, slices were fixed and embedded in paraffin blocks. FFPE slices were stained by H&E, and the percentage of viable cancer cells was morphologically assessed on H&E stained sections by a pathologist as the ratio between viable cancer cell area and total cancer area (viable cancer cells plus necrotic cancer cells). […] Each black dot in a given treatment condition represents a different tumor. P-values were calculated by two-sided t-test. *** P<0.001 ** P<0.01. Error bars represent standard error. […] Names of the six secreted factors with the highest rScore are shown. Factors related to TNF pathways are marked in gray. Results represent the average of at least two experiments. […] Cohort size pre-treatment: 5-6, P-values of the difference on the last day of experiment were calculated by one-sided Mann-Whitney test. * P<0.05. […] Viability percentage was calculated based on the entire field of view per treatment combination. […] FFPE slices were stained by pERK and pERK activity was assessed by a pathologist. […]
For the ex-vivo experiments EVOCs from immunocompromised mice bearing human tumors were generated, as further described hereinbelow. For the in-vivo validation experiments, mice bearing subcutaneous tumors were used; and response was measured by evaluating tumor volume. […]

AZD4547
H&E and BrDu staining of tissue: live and proliferating tissue
